Assay results reported in patent publication US10647680B2, “Urea compound, preparation method therefor and medical use thereof” (Ancureall Pharmaceutical (Shanghai) Co., Ltd., priority 2016, dated 2020).

Assays:
Format in all cases: cell-based
Conditions in all cases: Homo sapiens
NCI-H292 (EGFR WT) = assay: In vitro growth inhibition (GI50), NCI-H292
Source text: (§1) Tumor cell line is an effective cell model for studying the inhibition of tumor cell growth or proliferation in vitro. In the present invention, a representative tumor cell line was selected to determine the cell growth inhibition activity of the present compound. All cell lines used were from ATCC, DSMZ, and the Cell Bank of the Chinese Academy of Sciences. Cell culture conditions and methods were in accordance with the requirements of each cell line. Cells were subcultured in vitro for no more than 3 passages each time, and as required, single-clone purification and identification of cell lines could be carried out.
(§2) The cell culture media used were RPMI1640 (Gibco), MEM (Gibco), McCOY'S5A (Gibco), and IMDM (Gibco). The complete medium was prepared by supplement with 5˜20% fetal calf serum (Gibco), 1% double-antibiotics (10000 units/mL penicillin and 10000 units/mL), 2 mM glutamine or 1 mM sodium pyruvate, respectively.
Human epidermal cancer cell line A431 (EGFR WT, amplification and high expression, from Shanghai Cell Bank of Chinese Academy of Sciences and ATCC), human lung cancer cell line NCI-H292 (EGFR WT, purchased from Shanghai Cell Bank of Chinese Academy of Sciences), NSCLC cell lines PC-9 and HCC827 (EGFR exon19 E746-A750 deletion, two cell lines are sensitive to the first-generation EGFR PTK inhibitor), NSCLC cell line NCI-H1975 (EGFR L858R/T790M and the first-generation EGFR inhibitor resistance, ATCC) were cultured with 1×RPMI1640 complete medium (supplement with 10% FBS), respectively.
(§3) Adherent cells were digested with 0.25% pancreatin-EDTA (Gibco). The suspension cells were collected by centrifugation. The supernatant was discarded and the cell pellet was resuspended and counted. Different cell concentrations (5˜10×10^4 cells/mL) were prepared according to the growth cycle of each cell line and then seeded on a 96-well plate (Corning), 100 μL/well. The cells were incubated overnight at 37° C., 5% CO2. The compounds were added to the cells on the second day with 2 wells in parallel. The final concentration of organic solvent shall not exceed 1%. The cells were continually incubated for 3 to 5 days, and then subjected to MTT assay.
(§4) The compound of the present invention and the control compound were dissolved in DMSO (Sigma) respectively, with the purity of more than 98%. The compound was stored in a concentration of 10 mM at −20° C. and diluted to 2- or 10-fold series prior to use.
(§5) Dojindo CCK8 reagent kit was used as MTT assay. THERMO […] FC meter was used as microplate reader.
(§6) For adherent cells, culture medium was removed and immediately replaced with the fresh prepared medium which contains 10% CCK8 reagent (100 μL/well). For the suspension cells, CCK8 was directly added to 10% of the final concentration. The cells were continually incubated for 1˜4 h. When a dark yellow color could be observed in the solvent control wells, the absorbance value at OD450 nm was measured and the cell growth rate was calculated according to the following formula: Cell Growth Rate (%)=100*(T−T0)/(C−T0) T=optical density of drug treatment cell well—optical density of blank control well; T0=optical density of cell well before drug treatment—optical density of blank control well; C=optical density of cell well of solvent control group—optical density of blank control well. The concentration value of 50% inhibition of cell growth (GI50) was calculated according to the drug concentration and cell growth rate curve. The experiment was independently repeated 1˜3 times, and subject to biological statistical analysis. 4. Experimental Results
Tumor cell growth inhibition test was performed by selecting representative compounds (compounds 4, 11, 12, 16, 27, 68, 71, 77, 79, 89 and 116 of the present invention). The initial concentration of the compound was 5,000 nM, then it was serially diluted by 2-fold or 10-fold to 0.01 nM. The GI50 value of each test compound was calculated according to the GI50 assay and calculation method. […]

AU565 (HER2/ErbB2 amp) = assay: In vitro growth inhibition (GI50), AU565
Source text: as §1, §2
(§7) Human gastric cancer cell line NCI-N87 (HER2/ErbB2 amp, ATCC), human breast cancer cell line HCC1954 (HER2/ErbB2 amp, ATCC) and ZR-75-30 (HER2/ErbB2 amp, ATCC), human adenocarcinoma cell line AU565 (HER2/ErbB2 amp, ATCC), human lung squamous cell carcinoma cell line NCI-H2170 (HER2/ErbB2 amp, ATCC), human bronchioalveolar adenocarcinoma cell line NCI-H1781 (HER2/ErbB2 Ins G776V,C mutant type, ATCC) were cultured with a 1×RPMI1640 complete medium (10% FBS), respectively. Human lung adenocarcinoma cell line Calu-3 (HER2/ErbB2 amp, ATCC) was cultured with 1×MEM, 10% FBS, 1% double antibody, 1% NEAA (Gibco), 2 mM glutamine and 1 mM sodium pyruvate. The human breast cancer cell line SK-BR-3 (HER2/ErbB2 amp, ATCC) was cultured with a McCOY'S5A complete medium (10% FBS).
as §3, §4, §5, §6
(§8) Tumor cell growth inhibition test was performed by selecting representative compounds (compounds 4, 11, 12, 16, 27, 68, 71, 77, 79, 89 and 116 of the present invention). […]

[1] = test system: NCI-H1781 (HER2/ErbB2 Ins G776V,C mutant type); assay: In vitro growth inhibition (GI50), NCI-H1781
Source text: as §1, §2, §7, §3, §4, §5, §6, §8

Measured: GI50

CC(C)(C)c1cc(NC(=O)Nc2ccc(-n3cnc4cc(O)ccc43)cc2)no1 [Compound 4, 1-(5-tert-butyl-isoxazol-3-yl)-3-[4-(5-hydroxy-benzimidazol-1-yl)-phenyl]-urea]
> 2500 nM: all assays above

CC(C)(C)c1cc(NC(=O)Nc2ccc(-n3cnc4cc(OCCO)ccc43)cc2)no1 [Compound 11, 1-(5-tert-butyl-isoxazol-3-yl)-3-{4-[5-(2-hydroxy-ethoxyl)-benzimidazol-1-yl]-phenyl]-urea]
> 2500 nM: all assays above

CC(C)(C)c1cc(NC(=O)Nc2ccc(-n3cnc4cc(OCCN5CCOCC5)ccc43)cc2)no1 [Compound 16, 1-(5-tert-butyl-isoxazol-3-yl)-3-{4-[5-(2-morpholin-4-yl-ethoxyl)-benzimidazol-1-yl]-phenyl}-urea]
> 2500 nM: all assays above

CC(C)(C)c1cc(NC(=O)Nc2ccc(-n3cnc4ccc(OCCN5CCOCC5)cc43)cc2)no1 [Compound 27, 1-(5-tert-butyl-isoxazol-3-yl)-3-{4-[6-(2morpholin-4-yl-ethoxyl)-benzimidazol-1-yl]-phenyl}-urea]
> 2500 nM: all assays above

CC(C)(C)c1cc(NC(=O)Nc2ccc(-n3cnc4ccccc43)cc2)[nH]n1 [Compound 68, 1-(4-benzimidazol-1-yl-phenyl)-3-(5-tert-butyl-2H-pyrazol-3-yl)-urea]
> 2500 nM: all assays above

COc1ccc2c(c1)ncn2-c1ccc(NC(=O)Nc2cc(C(C)(C)C)n[nH]2)cc1 [Compound 71, 1-(5-tert-butyl-2H-pyrazol-3-yl)-3-[4-(5-methoxyl-benzimidazol-1-yl)-phenyl]-urea]
> 2500 nM: all assays above

COCCOc1ccc2c(c1)ncn2-c1ccc(NC(=O)Nc2cc(C(C)(C)C)n[nH]2)cc1 [Compound 77, 1-(5-tert-butyl-2H-pyrazol-3-yl)-3-{4-[5-(2-methoxyl-ethoxyl)-benzimidazol-1-yl]-phenyl}-urea]
> 2500 nM: all assays above

CC(C)(C)c1cc(NC(=O)Nc2ccc(-n3cnc4cc(OCCO)ccc43)cc2)[nH]n1 [Compound 79, 1-(5-tert-butyl-2H-pyrazol-3-yl)-3-{4-[5-(2-hydroxy-ethoxyl)-benzimidazol-1-yl]-phenyl]urea]
> 2500 nM: all assays above

CC(C)(C)c1cc(NC(=O)Nc2ccc(-n3cnc4cc(OCCN5CCOCC5)ccc43)cc2)[nH]n1 [Compound 89, 1-(5-tert-butyl-2H-pyrazol-3-yl)-3-{4-[5-(2-morpholin-4-yl-ethoxyl)-benzimidazol-1-yl]-phenyl}-urea]
> 2500 nM: all assays above

CC(C)(C)c1cc(N)n(C(=O)Nc2ccc(-n3cnc4ccccc43)cc2)n1 [Compound 116, 5-amino-3-tert-butyl-pyrazol-1-carboxylic acid (4-benzimidazol-1-yl-phenyl)-amide]
> 2500 nM: all assays above
